Measured values as given in article PMC1762332, “Catalases Are NAD(P)H-Dependent Tellurite Reductases” (PLoS ONE, 2006).

Experiments:
[1] = molecular target: T1, E. coli katG (HPI catalase) (Escherichia coli, UniProt P13029); assay: in-gel tellurite reductase activity after native PAGE of E. coli extract; absent in katG mutant; assay type: biochemical; conditions: 1 mM K2TeO3, 1 mM NADH, 1 mM 2-mercaptoethanol, potassium phosphate pH 7, 37 °C, 12 h
T1 construct: native enzyme in extract of E. coli (Top10 with pBAD vector), resolved on native gel; tetramer; band absent in katG mutant
T1 sequence (P13029 whole entry): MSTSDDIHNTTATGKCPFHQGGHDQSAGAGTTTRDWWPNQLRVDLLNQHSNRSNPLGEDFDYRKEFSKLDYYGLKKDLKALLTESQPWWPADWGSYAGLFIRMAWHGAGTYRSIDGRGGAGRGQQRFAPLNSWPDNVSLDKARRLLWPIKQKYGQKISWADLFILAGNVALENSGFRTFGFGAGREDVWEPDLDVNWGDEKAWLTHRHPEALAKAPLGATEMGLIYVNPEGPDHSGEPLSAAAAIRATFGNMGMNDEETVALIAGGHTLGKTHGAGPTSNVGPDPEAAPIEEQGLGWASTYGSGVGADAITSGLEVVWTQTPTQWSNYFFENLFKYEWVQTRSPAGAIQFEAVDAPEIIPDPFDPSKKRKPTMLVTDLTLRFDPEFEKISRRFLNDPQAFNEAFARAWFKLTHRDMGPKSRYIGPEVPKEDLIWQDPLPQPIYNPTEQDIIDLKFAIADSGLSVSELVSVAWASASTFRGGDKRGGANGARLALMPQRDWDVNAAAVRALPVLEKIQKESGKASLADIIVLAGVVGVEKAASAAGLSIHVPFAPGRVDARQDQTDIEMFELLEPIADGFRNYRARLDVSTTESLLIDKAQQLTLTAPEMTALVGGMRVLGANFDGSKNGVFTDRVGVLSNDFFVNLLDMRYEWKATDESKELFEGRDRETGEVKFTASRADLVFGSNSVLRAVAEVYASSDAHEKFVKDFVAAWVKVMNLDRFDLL

[2] = molecular target: T2, S. epidermidis CH katA (catalase) (Staphylococcus epidermidis, UniProt Q2PUJ9); assay: in-gel tellurite reductase activity after native PAGE of recombinant E. coli extract; assay type: biochemical; conditions: 1 mM K2TeO3, 1 mM NADH, 1 mM 2-mercaptoethanol, potassium phosphate pH 7, 37 °C, 12 h
T2 construct: katA coding region (1,515 bp) in pBAD (plasmid pCAT), expressed in E. coli Top10, extract; about 60 kDa subunit; homolog of SE1016 of ATCC12228
T2 sequence (Q2PUJ9 3-504): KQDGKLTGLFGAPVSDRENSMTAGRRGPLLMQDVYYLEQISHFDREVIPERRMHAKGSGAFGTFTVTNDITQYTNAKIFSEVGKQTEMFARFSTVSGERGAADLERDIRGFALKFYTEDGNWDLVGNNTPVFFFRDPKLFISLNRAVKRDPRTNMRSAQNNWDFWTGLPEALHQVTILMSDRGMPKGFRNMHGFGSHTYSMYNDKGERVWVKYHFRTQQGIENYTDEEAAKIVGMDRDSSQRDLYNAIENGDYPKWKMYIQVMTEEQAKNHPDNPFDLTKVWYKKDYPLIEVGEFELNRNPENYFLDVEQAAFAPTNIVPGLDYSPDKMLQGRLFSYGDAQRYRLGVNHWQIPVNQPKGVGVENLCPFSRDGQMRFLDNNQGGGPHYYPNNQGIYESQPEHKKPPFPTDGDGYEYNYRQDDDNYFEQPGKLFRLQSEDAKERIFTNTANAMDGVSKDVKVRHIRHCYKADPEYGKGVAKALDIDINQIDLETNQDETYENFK

O=[Te](O)O [tellurite]
in-gel tellurite reductase activity after native PAGE of E. coli extract; absent [1]: a barely detectable tellurite reductase activity | in-gel tellurite reductase activity after native PAGE of recombinant E. coli ext [2]: tellurite reductase activities of catalase are expressed at more than-four fold higher levels
